According to BigSolDB 2.1:

C#CC(C)(C)NC(=O)c1cc(Cl)cc(Cl)c1
solubility (mole fraction)
Conditions | 278.15 K | 283.15 K | 288.15 K | 293.15 K | 298.15 K | 303.15 K | 308.15 K | 313.15 K | 318.15 K | 323.15 K
in cyclohexane | – | 0.000135 | 0.000185 | 0.000293 | 0.000425 | 0.000544 | 0.000704 | 0.00081 | 0.00101 | 0.00124
in ethanol | 0.0071 | 0.00834 | 0.00953 | 0.011 | 0.0131 | 0.0151 | 0.0174 | 0.0205 | 0.0242 | 0.0295
in isopropanol | 0.00219 | 0.00269 | 0.00351 | 0.00526 | 0.00705 | 0.00865 | 0.0112 | 0.0137 | 0.0171 | 0.023
in methanol | 0.00654 | 0.0077 | 0.00892 | 0.0101 | 0.0124 | 0.0145 | 0.017 | 0.0201 | 0.0236 | 0.0283
in toluene | 0.00179 | 0.00238 | 0.00298 | 0.00368 | 0.00467 | 0.00593 | 0.00735 | 0.00924 | 0.0113 | 0.0124
